CC(=O)Nc1ccc(OC(=O)c2ccccc2OC(C)=O)cc1
solubility (mole fraction)
Conditions	278.15 K	283.15 K	288.15 K	293.15 K	298.15 K	303.15 K	308.15 K	313.15 K	318.15 K	323.15 K
in DMAc	0.058	0.0623	0.0687	0.075	0.0814	0.0875	0.0954	0.103	0.112	0.12
in DMSO	–	–	–	0.0385	0.0463	0.0544	0.0637	0.0743	0.0865	0.1
in methyl acetate	0.0011	0.00138	0.00164	0.00199	0.00238	0.00289	0.00344	0.00412	0.00496	0.00602
in n-butyl acetate	0.000482	0.000609	0.000727	0.000899	0.00106	0.0013	0.0016	0.00189	0.00229	0.00272
in n-pentyl acetate	0.000309	0.000392	0.000509	0.000638	0.000794	0.000983	0.00121	0.00149	0.0018	0.00217
in n-propyl acetate	0.00053	0.000653	0.000831	0.00104	0.00127	0.00154	0.00186	0.00221	0.00275	0.00324
